These are literature values, as cited in US10350275B2, “Methods of cytotoxic gene therapy to treat tumors” (Advantagene, Inc., priority 2013, dated 2019).

The data set relates to tumors. Particulars: monotherapy; Senzer et al 2009.

Consider “Anti-CTLA-4: Immune checkpoint inhibitor antibody; Ipilimumab (anti-CTLA-4) approved for metastatic melanoma”, for which the “complete and partial responses, share of subjects” value is listed as “about 10.9%”.
